According to EPA's CvTdb concentration-time database:

Key:
Rat [1] = test: concentration in plasma after dosing; settings: 3 h; dosed: Wyeth-14643; 2.0 mg/kg; oral; Male; Sprague-Dawley
Rat [2] = test: concentration in plasma after dosing; settings: 3 h; dosed: Wyeth-14643; 2.0 mg/kg; oral; Male; Sprague-Dawley; remark: listed apart in the source
Rat [3] = test: concentration in plasma after dosing; settings: 0.5 h; dosed: Wyeth-14643; 1.0 mg/kg; oral; Male; Sprague-Dawley
Rat [4] = test: concentration in plasma after dosing; settings: dosed: Wyeth-14643, 2.0 mg/kg, oral, Male, Sprague-Dawley
Rat [5] = test: concentration in liver after dosing; settings: 3 h; dosed: Bis 2-Chloroethoxy Methane; 20 mg/kg; iv; Male; F344
Rat [6] = test: concentration in thymus after dosing; settings: 20 min; dosed: Bis 2-Chloroethoxy Methane; 20 mg/kg; iv; Male; F344
Rat [7] = test: concentration in plasma after dosing; settings: 20 min; dosed: Bis 2-Chloroethoxy Methane; 20 mg/kg; iv; Female; F344
Rat [8] = test: concentration in thymus after dosing; settings: 8 h; dosed: Bis 2-Chloroethoxy Methane; 20 mg/kg; iv; Female; Harlan Sprague-Dawley
Rat [9] = test: concentration in thymus after dosing; settings: 1 h; dosed: Bis 2-Chloroethoxy Methane; 20 mg/kg; iv; Female; F344
Rat [10] = test: concentration in plasma after dosing; settings: 3 h; dosed: Bis 2-Chloroethoxy Methane; 20 mg/kg; iv; Male; F344
Rat [11] = test: concentration in thymus after dosing; settings: 20 min; dosed: Bis 2-Chloroethoxy Methane; 20 mg/kg; iv; Male; F344; remark: listed apart in the source
Rat [12] = test: concentration in brain after dosing; settings: 12 h; dosed: Fluorotelomer alcohol 8+2; 24 mg/kg; oral; Male; Harlan Sprague Dawley
Rat [13] = test: concentration in liver after dosing; settings: 12 h; dosed: Fluorotelomer alcohol 8+2; 80 mg/kg; oral; Female; Harlan Sprague Dawley
Rat [14] = test: concentration in liver after dosing; settings: 12 h; dosed: Fluorotelomer alcohol 8+2; 80 mg/kg; oral; Female; Harlan Sprague Dawley; remark: listed apart in the source
Rat [15] = test: concentration in liver after dosing; settings: 12 h; dosed: Fluorotelomer alcohol 8+2; 24 mg/kg; oral; Male; Harlan Sprague Dawley
Rat [16] = test: concentration in plasma after dosing; settings: dosed: Fluorotelomer alcohol 8+2, 40 mg/kg, iv, Male, F344
Rat [17] = test: concentration in plasma after dosing; settings: dosed: Fluorotelomer alcohol 8+2, 12 mg/kg, iv, Male, F344
Rat [18] = test: concentration in kidney after dosing; settings: 6 h; dosed: Fluorotelomer alcohol 8+2; 80 mg/kg; oral; Female; Harlan Sprague Dawley
Rat [19] = test: concentration in plasma after dosing; settings: 20 min; dosed: Di-n-butyl phthalate; 20 mg/kg; iv; Male; Sprague-Dawley
Rat [20] = test: concentration in plasma after dosing; settings: 20 h; dosed: Di-n-butyl phthalate; 200 mg/kg; oral; Male; Sprague-Dawley
Rat [21] = test: concentration in plasma after dosing; settings: 15 h; dosed: Di-n-butyl phthalate; 50 mg/kg; oral; Male; Sprague-Dawley
Rat [22] = test: concentration in brain after dosing; settings: 1848 h; dosed: Perfluorodecanoic acid; 10 mg/kg; oral; Female; Harlan Sprague Dawley
Rat [23] = test: concentration in brain after dosing; settings: 1848 h; dosed: Perfluorodecanoic acid; 10 mg/kg; oral; Male; Harlan Sprague Dawley
Rat [24] = test: concentration in liver after dosing; settings: 3360 h; dosed: Perfluorodecanoic acid; 10 mg/kg; oral; Female; Harlan Sprague Dawley
Rat [25] = test: concentration in kidney after dosing; settings: 1 h; dosed: Perfluorodecanoic acid; 10 mg/kg; oral; Male; Harlan Sprague Dawley
Rat [26] = test: concentration in plasma after dosing; settings: 12 h; dosed: Primidone; 80 mg/kg; oral; Female; Harlan Sprague-Dawley
Rat [27] = test: concentration in liver after dosing; settings: 40 min; dosed: Thiodiglycolic Acid; 20 mg/kg; iv; Male; Harlan Sprague Dawley
Rat [28] = test: concentration in heart after dosing; settings: 6.667 h; dosed: Thiodiglycolic Acid; 20 mg/kg; iv; Female; Harlan Sprague Dawley
Rat [29] = test: concentration in liver after dosing; settings: 8 h; dosed: Thiodiglycolic Acid; 20 mg/kg; iv; Female; Harlan Sprague Dawley
Rat [30] = test: concentration in liver after dosing; settings: 10 min; dosed: Thiodiglycolic Acid; 20 mg/kg; iv; Male; F344
Rat [31] = test: concentration in liver after dosing; settings: 1 h; dosed: Thiodiglycolic Acid; 20 mg/kg; iv; Male; Harlan Sprague Dawley
Rat [32] = test: concentration in heart after dosing; settings: 10 h; dosed: Thiodiglycolic Acid; 20 mg/kg; iv; Male; F344
Rat [33] = test: concentration in liver after dosing; settings: 10 h; dosed: Thiodiglycolic Acid; 20 mg/kg; iv; Male; F344
Rat [34] = test: concentration in thymus after dosing; settings: 1 h; dosed: Thiodiglycolic Acid; 20 mg/kg; iv; Female; Harlan Sprague Dawley
Rat [35] = test: concentration in plasma after dosing; settings: 1 h; dosed: Thiodiglycolic Acid; 20 mg/kg; iv; Female; Harlan Sprague Dawley
Rat [36] = test: concentration in plasma after dosing; settings: 5 min; dosed: dichloroacetic acid; 10 mg/kg; oral; Male; Harlan Sprague Dawley
rat [37] = test: concentration in plasma after dosing; negative times count back from the end of exposure; settings: dosed: trichloroethylene, inhalation, duration: 4 hr, female, F344

Cc1cccc(Nc2cc(Cl)nc(SCC(=O)O)n2)c1C
concentration in plasma (Rat [1]): 382 ng/mL | concentration in plasma (Rat [2]): 426 ng/mL | concentration in plasma (Rat [3]): 1210 ng/mL | concentration in plasma (Rat [4]; 0.5 h): 1230 ng/mL | concentration in plasma (Rat [4]; 5 h): 529 ng/mL

ClCCOCOCCCl [Bis 2-Chloroethoxy Methane]
concentration in liver (Rat [5]): 104 ng/g | concentration in thymus (Rat [6]): 25400 ng/g | concentration in plasma (Rat [7]): 4820 ng/mL | concentration in thymus (Rat [8]): 13.1 ng/g | concentration in thymus (Rat [9]): 2300 ng/g | concentration in plasma (Rat [10]): 90.6 ng/mL | concentration in thymus (Rat [11]): 26300 ng/g

OCCC(F)(F)C(F)(F)C(F)(F)C(F)(F)C(F)(F)C(F)(F)C(F)(F)C(F)(F)F [Fluorotelomer alcohol 8+2]
concentration in brain (Rat [12]): 221 ng/g | concentration in liver (Rat [13]): 1160 ng/g | concentration in liver (Rat [14]): 434 ng/g | concentration in liver (Rat [15]): 719 ng/g | concentration in plasma (Rat [16]; 5 min): 23200 ng/mL | concentration in plasma (Rat [16]; 3 h): 505 ng/mL | concentration in plasma (Rat [17]; 5 min): 3710 ng/mL | concentration in plasma (Rat [17]; 3 h): 125 ng/mL | concentration in kidney (Rat [18]): 834 ng/g

CCCCOC(=O)c1ccccc1C(=O)O [Mono-n-butyl phthalate]
concentration in plasma (Rat [19]): 21800 ng/mL | concentration in plasma (Rat [20]): 1290 ng/mL | concentration in plasma (Rat [21]): 530 ng/mL

O=C(O)C(F)(F)C(F)(F)C(F)(F)C(F)(F)C(F)(F)C(F)(F)C(F)(F)C(F)(F)C(F)(F)F [Perfluorodecanoic acid]
concentration in brain (Rat [22]): 680 ng/g | concentration in brain (Rat [23]): 531 ng/g | concentration in liver (Rat [24]): 6380 ng/g | concentration in kidney (Rat [25]): 10800 ng/g

CCC1(c2ccccc2)C(=O)NC(=O)NC1=O [Phenobarbital]
concentration in plasma (Rat [26]): 5830 ng/mL

O=C(O)CSCC(=O)O [Thiodiglycolic Acid]
concentration in liver (Rat [27]): 176000 ng/g | concentration in heart (Rat [28]): 308 ng/g | concentration in liver (Rat [29]): 45300 ng/g | concentration in liver (Rat [30]): 155000 ng/g | concentration in liver (Rat [31]): 126000 ng/g | concentration in heart (Rat [32]): 483 ng/g | concentration in liver (Rat [33]): 630 ng/g | concentration in thymus (Rat [34]): 3010 ng/g | concentration in plasma (Rat [35]): 2900 ng/mL

O=C(O)C(Cl)Cl [dichloroacetic acid]
concentration in plasma (Rat [36]): 430 ng/mL

O=C(O)C(Cl)(Cl)Cl [trichloroacetic acid]
concentration in plasma (rat [37]; 30 s, 600 ppm): 21100 ng/mL | concentration in plasma (rat [37]; 241 s, 600.4 ppm): 15900 ng/mL | concentration in plasma (rat [37]; 0.2413 h, 600.4 ppm): 25200 ng/mL | concentration in plasma (rat [37]; 0.5005 h, 600.4 ppm): 28200 ng/mL | concentration in plasma (rat [37]; 0.963 h, 600 ppm): 24500 ng/mL | concentration in plasma (rat [37]; 2.113 h, 600 ppm): 33800 ng/mL | concentration in plasma (rat [37]; 4.901 h, 600.4 ppm): 36600 ng/mL | concentration in plasma (rat [37]; 5.077 h, 600 ppm): 46200 ng/mL | concentration in plasma (rat [37]; 20.89 h, 600.4 ppm): 8380 ng/mL | concentration in plasma (rat [37]; 21.02 h, 600 ppm): 25300 ng/mL | concentration in plasma (rat [37]; 28.48 h, 600.4 ppm): 3970 ng/mL | concentration in plasma (rat [37]; 29.96 h, 600 ppm): 14100 ng/mL | concentration in plasma (rat [37]; 44.93 h, 600.4 ppm): 1220 ng/mL | concentration in plasma (rat [37]; 45.37 h, 600 ppm): 8190 ng/mL | concentration in plasma (rat [37]; -0.5889 h, 600.4 ppm, during exposure): 15300 ng/mL | concentration in plasma (rat [37]; -3.292 h, 600.4 ppm, during exposure): 1380 ng/mL | concentration in plasma (rat [37]; -3.75 h, 600 ppm, during exposure): 5790 ng/mL
